What was measured:
[1] = target: Human KDR (residues 790-1356) (Homo sapiens (Human), UniProt P35968); experiment: Human KDR kinase assay, HTRF KinEase (Example B-2); type: biochemical; conditions: protocol of Example B-2 (other compounds)
How it was run: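 Human KDR residues 790-1356 (0.1 ng/well) in buffer with 5 mM MgCl2, 1 mM MnCl2, 1 mM DTT, biotinylated peptide substrate, ATP at Km (4.0 μM), 3% DMSO, 10 compound concentrations; 40 min, room temperature. EDTA stop, streptavidin-XL665/Eu-TK antibody HTRF read 665/620 nm; 4-parameter IC50.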

[2] = target: Met (phospho-Met, HGF-stimulated PC-3 prostate cancer cells) (Homo sapiens (Human), UniProt P08581); experiment: Met autophosphorylation ELISA in PC-3 cells (Example F); type: cell-based; conditions: cellular activity; Met autophosphorylation ELISA in PC-3 cells; read-out: c-Met IC50
Sequence of Met (phospho-Met, HGF-stimulated PC-3 prostate cancer cells) (P08581 25-1390): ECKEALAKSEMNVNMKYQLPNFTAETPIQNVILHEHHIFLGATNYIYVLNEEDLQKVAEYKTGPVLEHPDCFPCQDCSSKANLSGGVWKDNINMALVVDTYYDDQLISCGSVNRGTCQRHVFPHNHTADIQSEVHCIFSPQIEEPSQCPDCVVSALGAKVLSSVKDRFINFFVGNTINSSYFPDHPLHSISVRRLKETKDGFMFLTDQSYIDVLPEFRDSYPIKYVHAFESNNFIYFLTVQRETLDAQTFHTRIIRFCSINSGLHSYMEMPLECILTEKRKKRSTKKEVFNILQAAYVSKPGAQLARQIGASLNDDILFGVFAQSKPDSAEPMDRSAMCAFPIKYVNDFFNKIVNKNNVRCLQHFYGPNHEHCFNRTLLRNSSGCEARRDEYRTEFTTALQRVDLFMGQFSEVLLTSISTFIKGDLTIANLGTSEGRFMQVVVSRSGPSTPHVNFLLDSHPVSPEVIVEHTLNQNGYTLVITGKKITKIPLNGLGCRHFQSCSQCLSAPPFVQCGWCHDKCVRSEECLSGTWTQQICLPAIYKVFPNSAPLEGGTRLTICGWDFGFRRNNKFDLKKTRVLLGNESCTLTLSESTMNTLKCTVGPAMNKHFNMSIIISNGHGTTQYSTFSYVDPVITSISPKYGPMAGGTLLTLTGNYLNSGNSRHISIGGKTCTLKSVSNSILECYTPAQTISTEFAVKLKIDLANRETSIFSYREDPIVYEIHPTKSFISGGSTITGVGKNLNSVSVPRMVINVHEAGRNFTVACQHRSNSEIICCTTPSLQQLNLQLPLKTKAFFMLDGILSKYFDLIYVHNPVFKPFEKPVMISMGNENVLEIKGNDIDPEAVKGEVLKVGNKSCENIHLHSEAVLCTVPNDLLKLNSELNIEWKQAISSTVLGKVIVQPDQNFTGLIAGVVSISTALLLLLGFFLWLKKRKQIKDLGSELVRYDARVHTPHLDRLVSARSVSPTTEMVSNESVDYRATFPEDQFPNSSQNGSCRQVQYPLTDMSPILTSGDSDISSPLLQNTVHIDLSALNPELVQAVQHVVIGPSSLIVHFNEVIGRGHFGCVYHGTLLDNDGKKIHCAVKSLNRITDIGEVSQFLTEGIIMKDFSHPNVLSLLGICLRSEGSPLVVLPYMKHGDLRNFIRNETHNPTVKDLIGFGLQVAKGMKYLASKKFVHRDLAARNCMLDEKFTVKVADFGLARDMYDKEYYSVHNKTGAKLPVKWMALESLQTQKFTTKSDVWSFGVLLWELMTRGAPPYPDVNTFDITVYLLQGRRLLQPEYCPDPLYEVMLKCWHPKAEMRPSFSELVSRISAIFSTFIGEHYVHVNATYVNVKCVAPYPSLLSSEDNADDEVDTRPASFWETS
How it was run: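 Serum-starved (3 h) PC-3 cells were treated 1 h with compounds (8-point curve, 0.3% DMSO), then stimulated with 100 ng/mL human HGF for 10 min. Lysate phospho-Met (panTyr) was measured by sandwich ELISA, normalised to DMSO and reference-inhibitor controls. IC50 came from 4-parameter logistic fit.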

Sequence of Human KDR (residues 790-1356) (P35968 790-1356): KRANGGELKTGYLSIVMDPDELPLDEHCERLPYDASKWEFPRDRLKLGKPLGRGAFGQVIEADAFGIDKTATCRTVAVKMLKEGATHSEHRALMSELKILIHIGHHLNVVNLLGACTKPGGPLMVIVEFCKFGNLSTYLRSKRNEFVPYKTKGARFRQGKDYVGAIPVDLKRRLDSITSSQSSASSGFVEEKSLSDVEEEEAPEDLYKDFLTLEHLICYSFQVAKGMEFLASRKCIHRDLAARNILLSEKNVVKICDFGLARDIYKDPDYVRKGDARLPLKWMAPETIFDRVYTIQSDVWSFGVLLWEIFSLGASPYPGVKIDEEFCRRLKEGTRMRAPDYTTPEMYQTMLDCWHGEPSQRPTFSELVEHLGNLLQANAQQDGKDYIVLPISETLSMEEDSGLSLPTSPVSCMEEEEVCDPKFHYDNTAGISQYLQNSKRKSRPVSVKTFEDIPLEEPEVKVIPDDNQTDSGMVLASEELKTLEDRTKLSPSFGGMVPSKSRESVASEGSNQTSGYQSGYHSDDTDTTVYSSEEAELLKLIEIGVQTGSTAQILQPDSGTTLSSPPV

SMILES	IC50 [1]	IC50 [2]
COc1ccc2c(Oc3ccc(NC(=O)c4cn(C(C)C)c(C)c(-c5ccc(F)cc5)c4=O)cc3F)ccnc2c1 [Compound 106, N-[3-Fluoro-4-(7-methoxyquinolin-4-yl)oxyphenyl]-5-(4-fluorophenyl)-6-methyl-4-oxo-1-propan-2-ylpyridine-3-carboxamide]	> 300 nM	< 100 nM
COc1cnc2c(Oc3ccc(NC(=O)c4cn(C)cc(-c5ccc(F)cc5)c4=O)cc3F)ccnc2c1 [Compound 112, N-[3-Fluoro-4-[(7-methoxy-1,5-naphthyridin-4-yl)oxy]phenyl]-5-(4-fluorophenyl)-1-methyl-4-oxopyridine-3-carboxamide]	> 300 nM	< 100 nM
COc1ccc2c(Oc3ccc(NC(=O)c4cnc(C)c(-c5ccc(F)cc5)c4O)cc3F)ccnc2c1 [Compound 105, N-[3-Fluoro-4-(7-methoxyquinolin-4-yl)oxyphenyl]-5-(4-fluorophenyl)-4-hydroxy-6-methylpyridine-3-carboxamide]	100 to 300 nM	< 100 nM
COc1cnc2c(Oc3ccc(NC(=O)c4cn(C)c(C)c(-c5ccc(F)cc5)c4=O)cc3)ccnc2c1 [Compound 111, 5-(4-Fluorophenyl)-N-[4-[(7-methoxy-1,5-naphthyridin-4-yl)oxy]phenyl]-1,6-dimethyl-4-oxopyridine-3-carboxamide]	> 300 nM	100 to 300 nM
COc1ccc2c(Oc3ccc(NC(=O)c4cnc(C)c(-c5ccc(F)cc5)c4O)cc3)ccnc2c1 [Compound 108, 5-(4-Fluorophenyl)-4-hydroxy-N-[4-(7-methoxyquinolin-4-yl)oxyphenyl]-6-methylpyridine-3-carboxamide]	< 100 nM	100 to 300 nM
COc1cc2nccc(Oc3ccc(NC(=O)c4cncc(-c5ccc(F)cc5)c4O)cc3)c2nc1OC [Compound 118, N-[4-[(6,7-Dimethoxy-1,5-naphthyridin-4-yl)oxy]phenyl]-5-(4-fluorophenyl)-4-hydroxypyridine-3-carboxamide]	< 100 nM	< 100 nM
COc1cc2nccc(Oc3ccc(NC(=O)c4cn(C(C)C)c(C)c(-c5ccc(F)cc5)c4=O)cc3)c2nc1OC [Compound 115, N-[4-[(6,7-Dimethoxy-1,5-naphthyridin-4-yl)oxy]phenyl]-5-(4-fluorophenyl)-6-methyl-4-oxo-1-propan-2-ylpyridine-3-carboxamide]	< 100 nM	< 100 nM
CCn1cc(C(=O)Nc2ccc(Oc3ccnc4cc(OC)ccc34)c(F)c2)c(=O)c(-c2ccc(F)cc2)c1C [Compound 107, 1-Ethyl-N-[3-fluoro-4-(7-methoxyquinolin-4-yl)oxyphenyl]-5-(4-fluorophenyl)-6-methyl-4-oxopyridine-3-carboxamide]	> 300 nM	100 to 300 nM

The remaining lines, values ahead:

IC50 [1]	IC50 [2]	SMILES
< 100 nM	< 100 nM	COc1cc2nccc(Oc3ccc(NC(=O)c4cnc(C)c(-c5ccc(F)cc5)c4O)cc3F)c2cc1OC [Compound 109, N-[4-(6,7-Dimethoxyquinolin-4-yl)oxy-3-fluorophenyl]-5-(4-fluorophenyl)-4-hydroxy-6-methylpyridine-3-carboxamide]
< 100 nM	< 100 nM	COc1cc2nccc(Oc3ccc(NC(=O)c4cnc(C)n(-c5ccc(F)cc5)c4=O)cc3F)c2nc1OC [Compound 97, N-[4-[(6,7-Dimethoxy-1,5-naphthyridin-4-yl)oxy]-3-fluorophenyl]-1-(4-fluorophenyl)-2-methyl-6-oxopyrimidine-5-carboxamide]
< 100 nM	< 100 nM	COc1cc2nccc(Oc3ccc(NC(=O)c4cn(CCO)cc(-c5ccc(F)cc5)c4=O)cc3F)c2nc1OC [Compound 117, N-[4-[(6,7-Dimethoxy-1,5-naphthyridin-4-yl)oxy]-3-fluorophenyl]-5-(4-fluorophenyl)-1-(2-hydroxyethyl)-4-oxopyridine-3-carboxamide]
> 300 nM	< 100 nM	COc1ccc2nccc(Oc3ccc(NC(=O)c4cn(C)c(C)c(-c5ccc(F)cc5)c4=O)cc3F)c2n1 [Compound 113, N-[3-Fluoro-4-[(6-methoxy-1,5-naphthyridin-4-yl)oxy]phenyl]-5-(4-fluorophenyl)-1,6-dimethyl-4-oxopyridine-3-carboxamide]
< 100 nM	< 100 nM	CCn1cc(C(=O)Nc2ccc(Oc3ccnc4cc(OC)c(OC)nc34)c(F)c2)c(=O)c(-c2ccc(F)cc2)c1 [Compound 116, N-[4-[(6,7-Dimethoxy-1,5-naphthyridin-4-yl)oxy]-3-fluorophenyl]-1-ethyl-5-(4-fluorophenyl)-4-oxopyridine-3-carboxamide]
< 100 nM	< 100 nM	COc1cc2nccc(Oc3ccc(NC(=O)c4c(C)nc(C)n(-c5ccc(F)cc5)c4=O)cc3F)c2nc1OC [Compound 101, N-[4-[(6,7-Dimethoxy-1,5-naphthyridin-4-yl)oxy]-3-fluorophenyl]-1-(4-fluorophenyl)-2,4-dimethyl-6-oxopyrimidine-5-carboxamide]
< 100 nM	< 100 nM	COc1cc2nccc(Oc3ccc(NC(=O)c4cnc(N(C)C)n(-c5ccc(F)cc5)c4=O)cc3F)c2nc1OC [Compound 100, N-[4-[(6,7-Dimethoxy-1,5-naphthyridin-4-yl)oxy]-3-fluorophenyl]-2-(dimethylamino)-1-(4-fluorophenyl)-6-oxopyrimidine-5-carboxamide]
< 100 nM	< 100 nM	COc1cc2nccc(Oc3ccc(NC(=O)c4c[nH]c(=O)n(-c5ccc(F)cc5)c4=O)cc3F)c2nc1OC [Compound 102, N-[4-[(6,7-Dimethoxy-1,5-naphthyridin-4-yl)oxy]-3-fluorophenyl]-3-(4-fluorophenyl)-2,4-dioxo-1H-pyrimidine-5-carboxamide]
< 100 nM	< 100 nM	COc1cc2nccc(Oc3ccc(NC(=O)c4c(C)ncn(-c5ccc(F)cc5)c4=O)cc3F)c2nc1OC [Compound 98, N-[4-[(6,7-Dimethoxy-1,5-naphthyridin-4-yl)oxy]-3-fluorophenyl]-1-(4-fluorophenyl)-4-methyl-6-oxopyrimidine-5-carboxamide]

— patent US12371428B2 (Exelixis, Inc., priority 2019, dated 2025)
